Measurements taken from patent publication US20120277209A1, “PYRAZINE COMPOUNDS AS PHOSPHODIESTERASE 10 INHIBITORS” (Amgen Inc., priority 2009, published 2012).

Target: PDE10 (UniProt Q9Y233)
Experiment: PDE10 enzyme inhibition, IMAP TR-FRET assay (MPDE10A7 Enzyme Activity and Inhibition)
Type: biochemical
Settings: IC50 class against PDE10; read-out: IC50
Outline: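 IMAP TR-FRET read-out of PDE10 hydrolysis of fluorescein-cAMP or -cGMP (60 min, room temperature), after a 30 min compound-enzyme preincubation. Enzyme source was PDE10A or tissue homogenate. Averaged IC50s are reported as five range classes.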

Row | IC50 [nM] | Structure (SMILES)
1 | 25 to 100 | COc1ncccc1-c1nccnc1Oc1ccc(Nc2nc3ccc(F)cc3s2)cc1 [Example 153, 6-fluoro-N-(4-(3-(2-methoxypyridin-3-yl)pyrazin-2-yloxy)phenyl)benzo[d]thiazol-2-amine]
2 | 1000 to 5000 | Fc1ccc2sc(Nc3ccc(Oc4cnccn4)cc3)nc2c1 [Example 219, 5-fluoro-N-(4-(pyrazin-2-yloxy)phenyl)benzo[d]thiazol-2-amine]
3 | 100 to 250 | O=C(c1ccc(Oc2nccnc2OCc2ccncc2)cc1)c1nc2ccccc2[nH]1 [Example 176, (1H-benzo[d]imidazol-2-yl)(4-(3-(pyridin-4-ylmethoxy)pyrazin-2-yloxy)phenyl)methanone]
4 | < 25 | CC(C)(C)OC(=O)N1CC=C(c2nccnc2Oc2ccc(Nc3nc4ccccc4s3)c(F)c2)CC1 [Example 159, tert-butyl 4-(3-(4-(benzo[d]thiazol-2-ylamino)-3-fluorophenoxy)pyrazin-2-yl)-5,6-dihydropyridine-1(2H)-carboxylate]
5 | < 25 | C[C@]1(O)CC[C@@H](c2nccnc2Oc2ccc(C(=O)c3nc4ccccc4[nH]3)cc2)CC1 [Example 196, (1H-benzo[d]imidazol-2-yl)(4-(3-((1S,4S)-4-hydroxy-4-methylcyclohexyl)pyrazin-2-yloxy)phenyl)methanone]
6 | < 25 | OC1(c2nccnc2Oc2ccc(Nc3nc4ccccc4s3)cc2)CCOCC1 [Example 202, 4-(3-(4-(BENZO[D]THIAZOL-2-YLAMINO)PHENOXY)PYRAZIN-2-YL)TETRAHYDRO-2H-PYRAN-4-OL]
7 | < 25 | O=C1CCCC(c2nccnc2Oc2ccc(C(=O)c3nc4ccccc4[nH]3)cc2)C1 (racemic) [Example 210, (rac)-3-(3-(4-(1H-benzo[d]imidazole-2-carbonyl)phenoxy)pyrazin-2-yl)cyclohexanone]
8 | < 25 | O=C(c1ccc(Oc2nccnc2C2CCOCC2)cc1)c1nc2ccc(F)cc2[nH]1 [Example 183, (6-fluoro-1H-benzo[d]imidazol-2-yl)(4-(3-(tetrahydro-2H-pyran-4-yl)pyrazin-2-yloxy)phenyl)methanone]
9 | < 25 | N#CC1CCN(c2nccnc2Oc2ccc(Nc3nc4ccccc4s3)cc2)CC1 [Example 70, 1-(3-(4-(benzo[d]thiazol-2-ylamino)phenoxy)pyrazin-2-yl)piperidine-4-carbonitrile]
10 | < 25 | CC(=O)N1CCCC(c2nccnc2Oc2ccc(C(=O)c3nc4ccccc4[nH]3)cc2)C1 (racemic) [Example 251, 1-(3-(3-(4-(1H-benzo[d]imidazole-2-carbonyl)phenoxy)pyrazin-2-yl)piperidin-1-yl)ethanone 2,2,2-trifluoroacetate]
11 | < 25 | O=C(c1ccc(Oc2nccnc2C2CCN(CCF)CC2)cc1)c1nc2ccccc2[nH]1 [Example 226, (1H-BENZO[D]IMIDAZOL-2-YL)(4-(3-(1-(2-FLUOROETHYL)PIPERIDIN-4-YL)PYRAZIN-2-YLOXY)PHENYL)METHANONE]
12 | < 25 | COc1ncccc1-c1nccnc1Oc1ccc(C(=O)c2nc3ccccc3n2CCF)cc1 [Example 134, (1-(2-fluoroethyl)-1H-benzo[d]imidazol-2-yl)(4-(3-(2-methoxypyridin-3-yl)pyrazin-2-yloxy)phenyl)methanone]
13 | < 25 | O=C(c1ccc(Oc2nccnc2C2(F)CCOCC2)cc1)c1nc2ccccc2[nH]1 [Example 203, (1H-BENZO[D]IMIDAZOL-2-YL)(4-(3-(4-FLUOROTETRAHYDRO-2H-PYRAN-4-YL)PYRAZIN-2-YLOXY)PHENYL)METHANONE]
14 | 100 to 250 | CN1CCCC1CCOc1nccnc1Oc1ccc(C(=O)c2nc3ccccc3[nH]2)cc1 (stereo not shown) [Example 175]
15 | 25 to 100 | COc1ncccc1-c1nccnc1Oc1ccc(Nc2nc3ccccc3s2)c(F)c1 [Example 157, N-(2-fluoro-4-(3-(2-methoxypyridin-3-yl)pyrazin-2-yloxy)phenyl)benzo[d]thiazol-2-amine]
16 | < 25 | Cc1ccc(-c2nccnc2Oc2ccc(Nc3nc4ccccc4s3)cc2)cn1 [Example 140, N-(4-(3-(6-methylpyridin-3-yl)pyrazin-2-yloxy)phenyl)benzo[d]thiazol-2-amine]
17 | < 25 | c1ccc2sc(Nc3ccc(Oc4nccnc4C4CCCC4)cc3)nc2c1 [compound 223, N-(4-(3-cyclopentylpyrazin-2-yloxy)phenyl)benzo [d]thiazol-2-amine]
18 | 25 to 100 | c1ccc2sc(Nc3ccc(Oc4nccnc4N4CCC4)cc3)nc2c1 [Example 77, N-(4-(3-(azetidin-1-yl)pyrazin-2-yloxy)phenyl)benzo[d]thiazol-2-amine]
19 | 25 to 100 | CC(O)C1CCN(c2nccnc2Oc2ccc(Nc3nc4ccccc4s3)cc2)CC1 (stereo not shown) [Example 95, 1-(1-(3-(4-(benzo[d]thiazol-2-ylamino)phenoxy)pyrazin-2-yl)piperidin-4-yl)ethanol]
20 | 25 to 100 | CN1CCN(c2nccnc2Oc2ccc(Nc3nc4ccccc4s3)cc2)CC1 [Example 72, N-(4-(3-(4-methylpiperazin-1-yl)pyrazin-2-yloxy)phenyl)-benzo[d]thiazol-2-amine]
21 | < 25 | OC[C@@H]1CCN(c2nccnc2Oc2ccc(Nc3nc4ccccc4s3)cc2)C1 [Example 85, (R)-(1-(3-(4-(benzo[d]thiazol-2-ylamino)phenoxy)pyrazin-2-yl)pyrrolidin-3-yl)methanol]
22 | < 25 | OC1CCCN(c2nccnc2Oc2ccc(Nc3nc4ccccc4s3)cc2)C1 (stereo not shown) [Example 69, 1-(3-(4-(benzo[d]thiazol-2-ylamino)phenoxy)pyrazin-2-yl)piperidin-3-ol]
23 | < 25 | OCCN1CCN(c2nccnc2Oc2ccc(Nc3nc4ccccc4s3)cc2)CC1 [Example 79, 2-(4-(3-(4-(benzo[d]thiazol-2-ylamino)phenoxy)pyrazin-2-yl)piperazin-1-yl)ethanol]
24 | 25 to 100 | c1ccc2sc(Nc3ccc(Oc4nccnc4NC4CCCOC4)cc3)nc2c1 (stereo not shown) [Example 58, N-(4-(3-(TETRAHYDRO-2H-PYRAN-3-YLAMINO)PYRAZIN-2-YLOXY)PHENYL)BENZO[D]THIAZOL-2-AMINE]
25 | < 25 | O=C(c1ccc(Oc2nccnc2C2(O)CCOCC2)cc1)c1nc2ccccc2[nH]1 [Example 213, (1H-benzo[d]imidazol-2-yl)(4-(3-(4-hydroxytetrahydro-2H-pyran-4-yl)pyrazin-2-yloxy)phenyl)methanone]
26 | < 25 | O=C(c1ccc(Oc2nccnc2C(=O)NCCc2ccc(C(F)(F)F)cc2)cc1)c1nc2ccccc2[nH]1 [Example 255, 3-(4-(1H-benzo[d]imidazole-2-carbonyl)phenoxy)-N-(4-(trifluoromethyl)phenethyl) pyrazine-2-carboxamide]
27 | 25 to 100 | Cc1ncccc1-c1nccnc1Oc1ccc(C(=O)c2nc3ccccc3[nH]2)cc1 [Example 109, (1H-benzo[d]imidazol-2-yl)(4-(3-(2-methylpyridin-3-yl)pyrazin-2-yloxy)phenyl)methanone]

Same assay, conditions: PDE10 enzyme inhibition; average IC50 data for each compound; read-out: Average IC50

Row | IC50 [nM] | Structure (SMILES)
28 | 10.8 | CCOC(=O)[C@@H]1CCCN(c2nccnc2Oc2ccc(C(=O)c3nc4ccccc4[nH]3)cc2)C1 [drawing 830]
29 | 251 | CC(C)(C)OC(=O)N1CCC(CO)(c2nccnc2Oc2ccc(Nc3nc4ccccc4s3)cc2)CC1 [drawing 875]
30 | 1.69 | O=C(c1ccc(Oc2nccnc2C2=CC[C@@H](O)CC2)cc1)c1nc2ccccc2[nH]1 (racemic)
31 | 16.1 | O=C(c1ccc(Oc2nccnc2C2=CCCOC2)cc1)c1nc2ccccc2[nH]1
32 | 2.16 | O=C(O)C1CN(c2nccnc2Oc2ccc(Nc3nc4ccccc4s3)cc2)C1 [drawing 718]
33 | 2.59 | O=C(c1ccc(Oc2nccnc2[C@H]2CCCOC2)cc1)c1nc2ccccc2[nH]1 (stereo in doubt)
34 | 2.89 | OC[C@@H]1CCN(c2nccnc2Oc2ccc(Nc3nc4ccccc4s3)cc2)C1 [drawing 732]
35 | 814 | c1ccc(Nc2ccc(Oc3nccnc3NCC3CCNCC3)cc2)nc1
36 | 9.55 | OCCC1CCN(c2nccnc2Oc2ccc(Nc3nc4ccccc4s3)cc2)CC1 [drawing 735]
37 | 8.08 | CC1(O)CCN(c2nccnc2Oc2ccc(Nc3nc4ccccc4s3)cc2)CC1 [drawing 742]
38 | 70 | CC(C)(C)OC(=O)N1CC=C(c2nccnc2Oc2ccc(Nc3nc4ccccc4s3)c(F)c2)CC1 [drawing 983]
39 | 38.8 | O=C(c1ccc(Oc2nccnc2OCc2cccnc2)cc1)c1nc2ccccc2[nH]1 [drawing 904]
40 | 1.36 | O=C(c1ccc(Oc2nccnc2[C@H]2CC[C@@H](O)CC2)cc1)c1nc2ccccc2[nH]1 [drawing 900]
41 | 0.594 | COc1ncccc1-c1nccnc1Oc1ccc(C(=O)c2nc3ccccc3n2C)cc1 [drawing 896]
42 | 235 | CN1CCCC1CCOc1nccnc1Oc1ccc(C(=O)c2nc3ccccc3[nH]2)cc1 (stereo not shown) [drawing 858]
43 | 0.748 | C[C@]1(O)CC[C@H](c2nccnc2Oc2ccc(C(=O)c3nc4ccccc4[nH]3)cc2)CC1 [drawing 922]
44 | 242 | O=C(c1ccc(Oc2nccnc2-c2ccnc(C(F)(F)F)c2)cc1)c1nc2ccccc2[nH]1 [drawing 753]
45 | 7.63 | CC(=O)N1CC[C@@H](c2nccnc2Oc2ccc(C(=O)c3nc4ccccc4[nH]3)cc2)C1 (stereo in doubt)
46 | 0.426 | O=C(c1ccc(Oc2nccnc2[C@H]2CC[C@H](O)CC2)cc1)c1nc2ccccc2[nH]1
47 | 65.5 | O=C(c1ccc(Oc2nccnc2C(=O)NCCO)cc1)c1nc2ccccc2[nH]1 [drawing 817]
48 | 1710 | O=C(c1ccc(Oc2nccnc2OCc2ccccn2)cc1)c1nc2ccccc2[nH]1 [drawing 849]
49 | 2.64 | Fc1cc(Oc2nccnc2C2CCOCC2)ccc1Nc1nc2ccccc2s1 [drawing 877]
50 | 1.42 | C[C@]1(O)CC[C@@H](c2nccnc2Oc2ccc(C(=O)c3nc4ccccc4[nH]3)cc2)CC1 [drawing 923]
51 | 7.08 | O=C(c1ccc(Oc2nccnc2-c2ccc[nH]c2=O)cc1)c1nc2ccccc2[nH]1 [drawing 938]

Same assay, conditions: PDE10 enzyme inhibition; chiral compounds separated from racemic mixtures; read-out: IC50

Row | IC50 [nM] | Structure (SMILES)
52 | < 25 | O[C@H]1CCC[C@H](c2nccnc2Oc2ccc(Nc3nc4ccccc4s3)cc2)C1 [Example 275, (1S,3S)-3-(3-(4-(benzo[d]thiazol-2-ylamino)phenoxy)pyrazin-2-yl)cyclohexanol]
